Experimental data from patent US11918662B2, “Heterocyclic compounds and imaging agents for imaging huntingtin protein” (CHDI Foundation, Inc., priority 2020, dated 2024).

Target: T1, MBP-HTT(1-89)Q46-His(6×) (“Exon1-Q46”) protein aggregates (Homo sapiens, UniProt P42858, INS38QQQQQQQQQQQQQQQQQQQQQQQQQ)
T1 construct: MBP-HTT(1-89)Q46-His(6×); His(6×) (C); made in house
Test: Exon1-Q46 Radioligand Binding Assay
Settings: displacement of 0.3 nM [3H3-methyl]-5-((5-methoxypyridin-2-yl)methoxy)-2-(pyrazin-2-yl)benzo[d]oxazole from 1 μM aggregated Exon1-Q46, 60 minutes at 37° C.; read-out: Potency Range (IC50)
Protocol: Exon1-Q46 Radioligand Binding Assay
For experiments 30 μM MBP-Exon1-Q46 was incubated with 150 μg/mL thrombin in assay buffer (150 mM NaCl, 50 mM Tris pH 8.0) and 2 mM CaCl2 for 16 hours at 37° C. Aggregated Exon1-Q46 was pelleted by centrifugation for 5 minutes at 13,000 rpm in a bench top centrifuge and re-dissolved in the same volume of assay buffer. […] For the RBA, Q46 protein aggregates and test compounds were pre-incubated in assay buffer for 20 minutes at room temperature, in 100 μL/well in a 96-well plate (pp, round bottom). Then, ligand was added in 50 μL/well and incubated for 60 minutes at 37° C. Final assay concentrations were […] test compound, 1 μM Exon1-Q46 protein (equivalent monomer concentration) and 0.3 nM ligand [^3H3-methyl]-5-((5-methoxypyridin-2-yl)methoxy)-2-(pyrazin-2-yl)benzo[d]oxazole. Samples were transferred onto GF/B filter plates and washed 2× with 200 μL PBS using a Filtermate Harvester. After drying filter plates for 1 hour at 55° C., the back of the plates were sealed with foil and 30 μL/well scintillation fluid (Packard MicroScint 40) added, incubated for 15 minutes in the dark and counted in a MicroBeta reader. […] IC50 values were determined with a sigmoidal inhibition model with four variables (top, bottom, slope, IC50) in a global fit using the normalized replicate data.

T1 sequence (P42858 with tags, fused parts or gaps with the stated changes limits assumed): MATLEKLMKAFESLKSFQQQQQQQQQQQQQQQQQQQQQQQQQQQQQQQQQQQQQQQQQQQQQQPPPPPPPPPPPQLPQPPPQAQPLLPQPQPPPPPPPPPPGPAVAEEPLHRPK

| IC50 [nM] | Structure (SMILES) |
| --- | --- |
| < 100 | COc1ccc(NC(=O)[C@H]2CC[C@@H]2n2c(=O)c3cccn3c3ccccc32)nc1 (racemic) [Example 17-1, (1SR,2SR)—N-(5-Methoxypyridin-2-yl)-2-{4-oxo-4H,5H-pyrrolo[1,2-a]quinoxalin-5-yl}cyclobutane-1-carboxamide] |
| < 100 | Cc1ccc(NC(=O)CCCn2c(=O)c3cccn3c3ccncc32)cc1 [Example 2-1, 4-(7-Oxo-2,8,11-triazatricyclo[7.4.0.0^2,6]trideca-1(9),3,5,10,12-pentaen-8-yl)-N-(p-tolyl)butanamide] |
| < 100 | COc1ccc(NC(=O)CCCn2c(=O)c3cccn3c3ccncc32)cc1 [Example 2-2] |
| < 100 | COc1cccc(NC(=O)CCCn2c(=O)c3cccn3c3ccncc32)c1 [Example 2-3] |
| < 100 | COc1ccnc(NC(=O)CCCn2c(=O)c3cccn3c3ccncc32)c1 [Example 2-4] |
| < 100 | COc1ccc(NC(=O)CCCn2c(=O)c3cccn3c3ccncc32)nc1 [Example 2-5] |
| < 100 | O=C(CCn1c(=O)c2cccn2c2ccc(F)cc21)N1CCCCC1 [Example 3-1, 7-Fluoro-5-[3-oxo-3-(piperidin-1-yl)propyl]-4H,5H-pyrrolo[1,2-a]quinoxalin-4-one] |
| < 100 | Cc1ccc(NC(=O)CCn2c(=O)c3cccn3c3ccc(F)cc32)cc1 [Example 3-2] |
| < 100 | COc1ccc(NC(=O)CCn2c(=O)c3cccn3c3ccc(F)cc32)cc1 [Example 3-3] |
| < 100 | COc1ncccc1NC(=O)CCn1c(=O)c2cccn2c2ccc(F)cc21 [Example 3-4] |
| < 100 | COc1cc(NC(=O)CCn2c(=O)c3cccn3c3ccc(F)cc32)ccn1 [Example 3-5] |
| < 100 | COc1ccc(NC(=O)CCn2c(=O)c3cccn3c3ccc(F)cc32)nc1 [Example 3-6] |
| < 100 | COc1cccc(NC(=O)CCn2c(=O)c3cccn3c3ccc(F)cc32)n1 [Example 3-7] |
| < 100 | Cc1ccc(NC(=O)CCn2c(=O)c3cccn3c3ccc(F)cc32)cn1 [Example 3-8] |
| < 100 | Cn1nc(NC(=O)CCn2c(=O)c3cccn3c3ccc(F)cc32)ccc1=O [Example 3-9] |
| < 100 | COc1ccncc1NC(=O)CCn1c(=O)c2cccn2c2ccc(F)cc21 [Example 3-10] |
| < 100 | COc1cncc(NC(=O)CCn2c(=O)c3cccn3c3ccc(F)cc32)c1 [Example 3-11] |
| < 100 | COc1ccc(NC(=O)CCn2c(=O)c3cccn3c3ccc(F)cc32)cn1 [Example 3-12] |
| < 100 | COc1ccnc(NC(=O)CCn2c(=O)c3cccn3c3ccc(F)cc32)c1 [Example 3-13] |
| < 100 | COc1ccc(N(C)C(=O)CCn2c(=O)c3cccn3c3ccc(F)cc32)cc1 [Example 3-14] |
| < 100 | O=C(CCn1c(=O)c2cccn2c2ccc(F)cc21)Nc1ccccc1Cl [Example 3-15] |
| < 100 | COc1ccccc1NC(=O)CCn1c(=O)c2cccn2c2ccc(F)cc21 [Example 3-16] |
| < 100 | COc1cccnc1NC(=O)CCn1c(=O)c2cccn2c2ccc(F)cc21 [Example 3-17] |

Further lines, the compound ahead of its results:

| Structure (SMILES) | IC50 [nM] |
| --- | --- |
| C[C@@H]1CN(C(=O)CCCn2c(=O)c3cccn3c3ccc(F)cc32)C[C@@H](C)O1 [Example 1-1, 5-{4-[(2R,6R)-2,6-Dimethylmorpholin-4-yl]-4-oxobutyl}-7-fluoro-4H,5H-pyrrolo[1,2-a]quinoxalin-4-one] | < 100 |
| C[C@@H]1C[C@H](C)CN(C(=O)CCCn2c(=O)c3cccn3c3ccc(F)cc32)C1 [Example 1-2] | < 100 |
| C[C@H]1C[C@H](C)CN(C(=O)CCCn2c(=O)c3cccn3c3ccc(F)cc32)C1 [Example 1-3] | < 100 |
| C[C@H]1CN(C(=O)CCCn2c(=O)c3cccn3c3ccc(F)cc32)C[C@H](C)O1 [Example 1-4] | < 100 |
| C[C@@H]1CN(C(=O)CCCn2c(=O)c3cccn3c3ccc(F)cc32)C[C@H](C)O1 [Example 1-5] | < 100 |
| O=C(CCCn1c(=O)c2cccn2c2ccc(F)cc21)Nc1ccccn1 [Example 1-6] | < 100 |
| O=C(CCCn1c(=O)c2cccn2c2ccc(F)cc21)NCc1cccnc1 [Example 1-7] | 100 to 500 |
| O=C(CCCn1c(=O)c2cccn2c2ccc(F)cc21)N1CCc2ccccc2C1 [Example 1-8] | < 100 |
| O=C(CCCn1c(=O)c2cccn2c2ccc(F)cc21)Nc1ccccc1 [Example 1-9] | < 100 |
| Cc1ccc(NC(=O)CCCn2c(=O)c3cccn3c3ccc(F)cc32)cc1 [Example 1-10] | < 100 |
| Cc1cccc(NC(=O)CCCn2c(=O)c3cccn3c3ccc(F)cc32)c1 [Example 1-11] | < 100 |
| COc1ccc(NC(=O)CCCn2c(=O)c3cccn3c3ccc(F)cc32)cc1 [Example 1-12] | < 100 |
| O=C(CCCn1c(=O)c2cccn2c2ccc(F)cc21)N1Cc2ccccc2C1 [Example 1-13] | < 100 |
| COc1cccc(NC(=O)CCCn2c(=O)c3cccn3c3ccc(F)cc32)c1 [Example 1-14] | < 100 |
| O=C(CCCn1c(=O)c2cccn2c2ccc(F)cc21)NCc1ccccc1 [Example 1-15] | < 100 |
| O=C(CCCn1c(=O)c2cccn2c2ccc(F)cc21)Nc1ccncc1 [Example 1-16] | < 100 |
| COc1ccccc1NC(=O)CCCn1c(=O)c2cccn2c2ccc(F)cc21 [Example 1-17] | < 100 |
| O=C(CCCn1c(=O)c2cccn2c2ccc(F)cc21)NCCc1cccnc1 [Example 1-18] | < 100 |
| O=C(CCCn1c(=O)c2cccn2c2ccc(F)cc21)NCC1CCCCC1 [Example 1-19] | < 100 |
| O=C(CCCn1c(=O)c2cccn2c2ccc(F)cc21)NCCc1ccccc1 [Example 1-20] | < 100 |
| Cc1ccccc1NC(=O)CCCn1c(=O)c2cccn2c2ccc(F)cc21 [Example 1-21] | < 100 |
| O=C(CCCn1c(=O)c2cccn2c2ccc(F)cc21)Nc1cccc(Cl)c1 [Example 1-22] | < 100 |
| COc1ccc(N(C)C(=O)CCCn2c(=O)c3cccn3c3ccc(F)cc32)cc1 [Example 1-23] | < 100 |
| O=C(CCCn1c(=O)c2cccn2c2ccc(F)cc21)Nc1cccnc1 [Example 1-24] | < 100 |
| O=C(CCCn1c(=O)c2cccn2c2ccc(F)cc21)Nc1ccccc1Cl [Example 1-25] | < 100 |

| Structure (SMILES) | IC50 [nM] |
| --- | --- |
| O=C(CCCn1c(=O)c2cccn2c2ccc(F)cc21)Nc1ccc(Cl)cc1 [Example 1-26] | < 100 |
| CC(C)NC(=O)CCCn1c(=O)c2cccn2c2ccc(F)cc21 [Example 1-27] | 100 to 500 |
| O=C(CCCn1c(=O)c2cccn2c2ccc(F)cc21)NC1CCCC1 [Example 1-28] | 100 to 500 |
| CN1CCN(C(=O)CCCn2c(=O)c3cccn3c3ccc(F)cc32)CC1 [Example 1-29] | 100 to 500 |
| CN(C)CCNC(=O)CCCn1c(=O)c2cccn2c2ccc(F)cc21 [Example 1-30] | 500 to 10000 |
| COCCNC(=O)CCCn1c(=O)c2cccn2c2ccc(F)cc21 [Example 1-31] | 100 to 500 |
| COC1CCC(NC(=O)CCCn2c(=O)c3cccn3c3ccc(F)cc32)CC1 (stereo not drawn) [Example 1-32] | 100 to 500 |
| CNC(=O)CCCn1c(=O)c2cccn2c2ccc(F)cc21 [Example 1-33] | 100 to 500 |
| CCNC(=O)CCCn1c(=O)c2cccn2c2ccc(F)cc21 [Example 1-34] | 100 to 500 |
| O=C(CCCn1c(=O)c2cccn2c2ccc(F)cc21)NC1CCCCC1 [Example 1-35] | 100 to 500 |
| COC1CCN(C(=O)CCCn2c(=O)c3cccn3c3ccc(F)cc32)C1 (stereo not drawn) [Example 1-36] | < 100 |
| O=C(CCCn1c(=O)c2cccn2c2ccc(F)cc21)N1CCC(C(F)(F)F)CC1 [Example 1-37] | < 100 |
| O=C(CCCn1c(=O)c2cccn2c2ccc(F)cc21)N1CCCC1 [Example 1-38] | < 100 |
| O=C(CCCn1c(=O)c2cccn2c2ccc(F)cc21)NC1CCC(C(F)(F)F)CC1 (stereo not drawn) [Example 1-39] | < 100 |
| CN(C)C(=O)CCCn1c(=O)c2cccn2c2ccc(F)cc21 [Example 1-40] | < 100 |
| CN1CCN(C(=O)CCCn2c(=O)c3cccn3c3ccc(F)cc32)CC1=O [Example 1-41] | < 100 |
| COC1CCCN(C(=O)CCCn2c(=O)c3cccn3c3ccc(F)cc32)C1 (stereo not drawn) [Example 1-42] | < 100 |
| COc1ccc(NC(=O)CCCn2c(=O)c3cccn3c3ccc(F)cc32)nc1 [Example 1-43] | < 100 |
| COc1ccnc(NC(=O)CCCn2c(=O)c3cccn3c3ccc(F)cc32)c1 [Example 1-44] | < 100 |
| O=C(CCCn1c(=O)c2cccn2c2ccc(F)cc21)N1CCCC(C(F)(F)F)C1 (stereo not drawn) [Example 1-45] | < 100 |
| CC1CCC(N(C)C(=O)CCCn2c(=O)c3cccn3c3ccc(F)cc32)CC1 (stereo not drawn) [Example 1-46] | < 100 |
| C[C@@H]1CN(C(=O)CCCn2c(=O)c3cccn3c3ccc(F)cc32)C[C@@H]1C [Example 1-47] | < 100 |
| C[C@@H]1CN(C(=O)CCCn2c(=O)c3cccn3c3ccc(F)cc32)C[C@H]1C [Example 1-48] | < 100 |
| C[C@@H]1CN(C(=O)CCn2c(=O)c3cccn3c3ccc(F)cc32)C[C@H]1C [Example 1-49] | < 100 |
